Legend:
[1] = system: large triple-negative breast cancer PDX model tumors; experiment: Experiment against large tumors in vivo after multiple times of administration; design: species or system mice; details: Docetaxel alone, 20 mg/kg once every seven days, two times
Experimental: Six mice with a tumor size of 400-500 mm^3 in a triple-negative breast cancer PDX model were randomly divided into two groups. In the experiment, the two groups were injected with a clinical first-line chemotherapy drug, Docetaxel and a c-Met targeted aptamer drug conjugate c-Met-ApDC through the tail vein, respectively, at a dosage of 20 mg/kg Docetaxel (administrated once every seven days, for two times in total) or 0.36 mg/kg equivalent of MMAE (administrated once every four days, for three times in total).
The weights of the mice, the lengths of tumors (a), and the widths of tumors (b) were measured and recorded at each injection. The calculation formula of tumor volume (V) was: V=(a×b^2)/2. The tumor volume exceeding 1,500 mm^3 or the weight loss exceeding 15% was taken as an endpoint of the experiment. The mice were euthanized, and the experiment was terminated. In the group administrated with Docetaxel, 0.36 mg/kg equivalent of MMAE was injected into the mice through the tail vein once every four days continuously for three times after the tumor volume exceeded 1,500 mm^3. […] It was almost less than 200 mm^3 after 44 days.

[2] = system: large triple-negative breast cancer PDX model tumors; experiment: Experiment against large tumors in vivo (triple-negative breast cancer PDX); design: species or system mice; details: tumor 400-500 mm^3; tail vein, 20 mg/kg once every seven days, two times
Experimental: Six mice with a tumor size of 400-500 mm^3 in a triple-negative breast cancer PDX model were randomly divided into two groups. In the experiment, the two groups were injected with a clinical first-line chemotherapy drug Docetaxel, and a c-Met targeted aptamer drug conjugate c-Met-ApDC through the tail vein, respectively at a dosage of 20 mg/kg Docetaxel (administrated once every seven days, for two times in total) or 0.36 mg/kg equivalent of MMAE (administrated once every four days, for three times in total). The weights of the mice, the lengths of tumors (a), and the widths of tumors (b) were measured and recorded at each injection. The calculation formula of tumor volume (V) was: V=(a×b^2)/2. The tumor volume exceeding 1,500 mm^3 or the weight loss exceeding 15% was taken as an endpoint of the experiment. The mice were euthanized, and the experiment was terminated. […] On about seven days of administration, the tumor volume in the group administrated with the chemotherapeutic drug began to increase, while the tumor of the group administrated with the reagent of the present invention began to decrease.

[3] = biological target: T1, c-Met (hepatocyte growth factor receptor) (UniProt P08581 P08581:25-932); experiment: SPR; concentrations 100-500 nM; unit μm [sic]
Experimental: (§1) The specific experimental process was as follows: the c-Met protein-bound aptamer CLN0004-52 (sequence SEQ: ID2: […]) reported in the literature was selected and modified with a mercapto group at the 3-terminal and then conjugated with vcMMAE to construct the c-Met targeted aptamer drug conjugate CLN0004-52-MMAE. The affinity of CLN0004-52-MMAE and SL1-MMAE with a c-Met protein was characterized by surface plasmon resonance spectroscopy. The binding forces of two c-Met ApDCs were determined at concentrations of 100, 200, 300, 400, and 500 nM. […] Strong affinity stated that it could bind with c-Met more strongly, enhancing the therapeutic effect.

[4] = biological target: T1, c-Met (hepatocyte growth factor …); experiment: SPR; concentrations 100-500 nM
Experimental: as §1

T1 sequence (P08581 25-932, one chain of several): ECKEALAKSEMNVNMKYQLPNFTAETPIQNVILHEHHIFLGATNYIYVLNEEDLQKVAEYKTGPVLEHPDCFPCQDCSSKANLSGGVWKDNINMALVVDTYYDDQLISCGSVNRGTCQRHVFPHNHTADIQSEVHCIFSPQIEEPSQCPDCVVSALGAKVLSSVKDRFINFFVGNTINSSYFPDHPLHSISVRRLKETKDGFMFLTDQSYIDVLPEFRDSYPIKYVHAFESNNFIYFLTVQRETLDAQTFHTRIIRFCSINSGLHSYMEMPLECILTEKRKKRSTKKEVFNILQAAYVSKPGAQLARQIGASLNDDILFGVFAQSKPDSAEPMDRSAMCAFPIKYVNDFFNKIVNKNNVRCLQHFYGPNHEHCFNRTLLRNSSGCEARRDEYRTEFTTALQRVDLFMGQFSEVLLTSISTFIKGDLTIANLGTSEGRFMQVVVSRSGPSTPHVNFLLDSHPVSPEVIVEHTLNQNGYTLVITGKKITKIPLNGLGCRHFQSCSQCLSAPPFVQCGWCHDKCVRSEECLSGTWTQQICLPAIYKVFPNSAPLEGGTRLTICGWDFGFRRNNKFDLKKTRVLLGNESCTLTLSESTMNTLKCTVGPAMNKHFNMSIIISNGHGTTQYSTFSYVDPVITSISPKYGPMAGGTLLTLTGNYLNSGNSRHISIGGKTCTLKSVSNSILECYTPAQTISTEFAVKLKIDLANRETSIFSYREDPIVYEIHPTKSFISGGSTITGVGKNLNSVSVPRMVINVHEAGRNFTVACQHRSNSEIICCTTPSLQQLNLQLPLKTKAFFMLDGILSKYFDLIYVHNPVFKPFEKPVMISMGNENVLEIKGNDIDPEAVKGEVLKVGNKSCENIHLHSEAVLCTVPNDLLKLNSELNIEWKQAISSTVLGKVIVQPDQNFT

For CC(=O)O[C@@]12CO[C@@H]1C[C@H](O)[C@@]1(C)C(=O)[C@H](O)C3=C(C)[C@@H](OC(=O)[C@H](O)[C@@H](NC(=O)OC(C)(C)C)c4ccccc4)C[C@@](O)([C@@H](OC(=O)c4ccccc4)[C@H]21)C3(C)C [Docetaxel], the tumor volume course [1] was “gradually increased”, the “inhibitory effect on large tumors” value [2] was “no apparent inhibitory effect” and the tumor volume increase [2] was 3 times the volume.

B1: CLN0004-52-MMAE (ssDNA)
DNA: GAGTGCGTAATGGTACGATTTGGGAAGTGGCTTGGGGTGGGATTAGTTTTGG
modifications: 3'-thiol conjugated to maleimide vcMMAE
B1 showed a Kd [3] of 21.5 µM.

Work on ATCAGGCTGGATGGTAGCTCGGTCGGGGTGGGTGGGTTGGCAAGTCTGAT (ssDNA, 3'-thiol conjugated to maleimide vcMMAE) [SL1-MMAE (c-Met-ApDC)] yielded a Kd [4] of 0.0775 µM.

Reference: patent publication US20240269295A1, “C-MET TARGETED APTAMER DRUG CONJUGATE AND METHOD FOR TREATING TUMOR” (Hangzhou Institute of Medicine, Chinese Academy of Sciences, priority 2023, published 2024)
